# Source: patent US20190328691A1, “ANTIBIOTIC THERAPY” (Boulos & Cooper Pharmaceuticals Pty Ltd, priority 2015, published 2019)
# Read-outs that look alike come from different tables or passages of the source.
# Experiments:
# [1] = test system: Staphylococcus aureus (ATCC 29213); test: Checkerboard combination / MIC assay with S. aureus ATCC 29213; assay type: cell-based; conditions: S. aureus ATCC 29213; for MIC: Staphylococcus aureus, read-out: MIC of antibiotic alone
# In short: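 CLSI broth microdilution checkerboard in CAMHB, final inoculum 5×10^5 CFU/mL, 2% DMSO. Ramizol or Chlopam (11-point 2-fold) crossed with commercial antibiotics (7-point), each starting at 4× MIC; synergy assessed by FIC index (sum of MIC-in-combination/MIC-alone ratios; ≤0.5 synergy, >4 antagonism).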
# [2] = test system: Staphylococcus aureus (BAA-1717); test: Checkerboard combination / MIC assay with S. aureus BAA-1717 (MRSA); assay type: cell-based; conditions: for Effect of individual antibiotic combinations: S. aureus BAA-1717
# In short: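 CLSI broth microdilution checkerboard in CAMHB (5×10^5 CFU/mL, 2% DMSO final). Ramizol or Chlopam was tested in 11-point two-fold series against 7-point antibiotic titrations, starting at 4× MIC.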
compound,measurement,setting,value
CC(=O)NC[C@H]1CN(c2ccc(N3CCOCC3)c(F)c2)C(=O)O1 [Linezolid],FICI of combination with Chlopam,[1]; Chlopam 0.003906 μg/mL + labelled antibiotic at MIC of same cell,1.0
same,MIC of antibiotic in combination with Chlopam,[1]; Chlopam 0.003906 μg/mL,2 µg/mL
same,FICI of combination with Chlopam,[1]; Chlopam 0.0078125 μg/mL + labelled antibiotic at MIC of same cell,1.0
same,MIC of antibiotic in combination with Chlopam,[1]; Chlopam 0.0078125 μg/mL,2 µg/mL
same,FICI of combination with Chlopam,[1]; Chlopam 0.015625 μg/mL + labelled antibiotic at MIC of same cell,1.0
same,MIC of antibiotic in combination with Chlopam,[1]; Chlopam 0.015625 μg/mL,2 µg/mL
same,FICI of combination with Chlopam,[1]; Chlopam 0.125 μg/mL + labelled antibiotic at MIC of same line,0.8
same,MIC of antibiotic in combination with Chlopam,[1]; Chlopam 0.125 μg/mL,1 µg/mL
same,FICI of combination with Chlopam,[1]; Chlopam 0.25 μg/mL + labelled antibiotic at MIC of same cell,0.8
same,MIC of antibiotic in combination with Chlopam,[1]; Chlopam 0.25 μg/mL,0.5 µg/mL
same,FICI of combination with Chlopam,[1]; Chlopam 0.5 μg/mL + labelled antibiotic at MIC of same cell,0.6
same,MIC of antibiotic in combination with Chlopam,[1]; Chlopam 0.5 μg/mL,0.25 µg/mL
same,Effect of individual antibiotic combinations,"[1]; Chlopam and Linezolid: 0.003901 and 2, 0.0078125 and 2, 0.015625 and 2, 0.125 and 1, 0.25 and 0.5, 0.5 and 0.25 μg/mL",additive effect
same,FICI of combination with Ramizol,[1]; Ramizol 0.015625 μg/mL + labelled antibiotic at MIC of same cell,1.0
same,MIC of antibiotic in combination with Ramizol,[1]; Ramizol 0.015625 μg/mL,4 µg/mL
same,FICI of combination with Ramizol,[1]; Ramizol 0.03125 μg/mL + labelled antibiotic at MIC of same cell,1.0
same,MIC of antibiotic in combination with Ramizol,[1]; Ramizol 0.03125 μg/mL,4 µg/mL
same,FICI of combination with Ramizol,[1]; Ramizol 0.0625 μg/mL + labelled antibiotic at MIC of same cell,1.0
same,MIC of antibiotic in combination with Ramizol,[1]; Ramizol 0.0625 μg/mL,4 µg/mL
same,FICI of combination with Ramizol,[1]; Ramizol 0.125 μg/mL + labelled antibiotic at MIC of same cell,1.0
same,MIC of antibiotic in combination with Ramizol,[1]; Ramizol 0.125 μg/mL,4 µg/mL
same,FICI of combination with Ramizol,[1]; Ramizol 0.25 μg/mL + labelled antibiotic at MIC of same cell,1.0
same,MIC of antibiotic in combination with Ramizol,[1]; Ramizol 0.25 μg/mL,4 µg/mL
same,Effect of individual antibiotic combinations,"[1]; Ramizol and linezolid: 0.015625 and 4, 0.03125 and 4, 0.0625 and 4, 0.125 and 4, 0.25 and 4 μg/mL",additive effect
same,MIC,"[1]; ATCC29213, Table 4, checkerboard series with Chlopam",2 µg/mL
same,MIC,"[1]; ATCC29213, Table 7, checkerboard series with Ramizol",4 µg/mL
same,Effect of the combinations with Chlopam (by mean FICI),[1]; labelled antibiotic + Chlopam,additive effect
same,mean FICI of combination with Chlopam,"[1]; labelled antibiotic + Chlopam, mean of all pairwise combinations",0.9
same,mean FICI of combination with Ramizol,"[1]; labelled antibiotic + Ramizol, mean of all pairwise combinations",1.1
same,FICI of combination with Chlopam,"[2]; Chlopam 0.001953 μg/mL + labelled antibiotic at MIC of same cell, S. aureus ATCC BAA-1717",1.0
same,MIC of antibiotic in combination with Chlopam,"[2]; Chlopam 0.001953 μg/mL, S. aureus ATCC BAA-1717",1 µg/mL
same,FICI of combination with Chlopam,"[2]; Chlopam 0.003906 μg/mL + labelled antibiotic at MIC of same cell, S. aureus ATCC BAA-1717",1.0
same,MIC of antibiotic in combination with Chlopam,"[2]; Chlopam 0.003906 μg/mL, S. aureus ATCC BAA-1717",1 µg/mL
same,FICI of combination with Chlopam,"[2]; Chlopam 0.0078125 μg/mL + labelled antibiotic at MIC of same cell, S. aureus ATCC BAA-1717",1.0
same,MIC of antibiotic in combination with Chlopam,"[2]; Chlopam 0.0078125 μg/mL, S. aureus ATCC BAA-1717",1 µg/mL
same,FICI of combination with Chlopam,"[2]; Chlopam 0.015625 μg/mL + labelled antibiotic at MIC of same cell, S. aureus ATCC BAA-1717",1.0
same,MIC of antibiotic in combination with Chlopam,"[2]; Chlopam 0.015625 μg/mL, S. aureus ATCC BAA-1717",1 µg/mL
same,Effect of individual antibiotic combinations,"[2]; Chlopam and Linezolid: 0.001953 and 1, 0.003901 and 1, 0.0078125 and 1, 0.015625 and 1 μg/mL",additive effect
same,FICI of combination with Ramizol,"[2]; Ramizol 0.015625 μg/mL + labelled antibiotic at MIC of same cell, S. aureus ATCC BAA-1717",1.0
same,MIC of antibiotic in combination with Ramizol,"[2]; Ramizol 0.015625 μg/mL, S. aureus ATCC BAA-1717",1 µg/mL
same,FICI of combination with Ramizol,"[2]; Ramizol 0.03125 μg/mL + labelled antibiotic at MIC of same cell, S. aureus ATCC BAA-1717",1.0
same,MIC of antibiotic in combination with Ramizol,"[2]; Ramizol 0.03125 μg/mL, S. aureus ATCC BAA-1717",1 µg/mL
same,FICI of combination with Ramizol,"[2]; Ramizol 0.0625 μg/mL + labelled antibiotic at MIC of same cell, S. aureus ATCC BAA-1717",1.0
same,MIC of antibiotic in combination with Ramizol,"[2]; Ramizol 0.0625 μg/mL, S. aureus ATCC BAA-1717",1 µg/mL
same,FICI of combination with Ramizol,"[2]; Ramizol 0.125 μg/mL + labelled antibiotic at MIC of same line, S. aureus ATCC BAA-1717",1.0
same,MIC of antibiotic in combination with Ramizol,"[2]; Ramizol 0.125 μg/mL, S. aureus ATCC BAA-1717",1 µg/mL
same,Effect of individual antibiotic combinations,"[2]; Ramizol and linezolid: 0.015625 and 1, 0.03125 and 1, 0.0625 and 1, 0.125 and 1 μg/mL",additive effect
same,MIC,"[2]; Staphylococcus aureus, ATCC BAA-1717 / BAA-1717, Table 4, checkerboard series with Chlopam, S. aureus ATCC BAA-1717, read-out: MIC of antibiotic alone",1 µg/mL
same,MIC of antibiotic alone,"[2]; Table 7, checkerboard series with Ramizol, S. aureus ATCC BAA-1717",1 µg/mL
same,mean FICI of combination with Chlopam,"[2]; labelled antibiotic + Chlopam, mean of all pairwise combinations, S. aureus ATCC BAA-1717",1.2
same,mean FICI of combination with Ramizol,"[2]; labelled antibiotic + Ramizol, mean of all pairwise combinations, S. aureus ATCC BAA-1717",1.2
